Our source for the IC50 values is ChEMBL document CHEMBL1141995, “N-i-Propoxy-N-biphenylsulfonylaminobutylhydroxamic acids as potent and selective inhibitors of MMP-2 and MT1-MMP” (Bioorg Med Chem Lett, 2005).

Molecules are shown by their SMILES.

The target of experiment [1] is Matrix metalloproteinase-9 (Homo sapiens, UniProt P14780). Briefly: Inhibition of human matrix metalloprotease-9.
In experiment [2] the target is 72 kDa type IV collagenase (Homo sapiens, UniProt P08253). Briefly: Inhibition of human matrix metalloprotease-2.
For the next experiment, the target named is Stromelysin-1 (Homo sapiens, UniProt P08254). Kind of experiment: Inhibition of human matrix metalloprotease-3.
The target in the next experiment is T1, Matrilysin (Homo sapiens, UniProt P09237).
T1 sequence (P09237 whole entry): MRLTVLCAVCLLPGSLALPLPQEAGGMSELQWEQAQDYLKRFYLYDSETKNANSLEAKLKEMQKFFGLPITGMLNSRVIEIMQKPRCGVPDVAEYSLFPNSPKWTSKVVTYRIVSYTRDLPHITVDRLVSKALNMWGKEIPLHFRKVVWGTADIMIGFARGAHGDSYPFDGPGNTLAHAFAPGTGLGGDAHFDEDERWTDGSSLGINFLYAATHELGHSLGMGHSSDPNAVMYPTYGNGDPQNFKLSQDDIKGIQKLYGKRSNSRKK
Kind of experiment: Inhibition of human matrix metalloprotease-7.

Experiment [3] concerns the target Matrix metalloproteinase-14 (Homo sapiens, UniProt P50281). Briefly: Inhibition of human matrix metalloprotease-14.
The next experiment addresses Neutrophil collagenase (Homo sapiens, UniProt P22894). Briefly: Inhibition of human matrix metalloprotease-8.
The target in the next experiment is T2, Interstitial collagenase (Homo sapiens, UniProt P03956).
T2 sequence (P03956 whole entry): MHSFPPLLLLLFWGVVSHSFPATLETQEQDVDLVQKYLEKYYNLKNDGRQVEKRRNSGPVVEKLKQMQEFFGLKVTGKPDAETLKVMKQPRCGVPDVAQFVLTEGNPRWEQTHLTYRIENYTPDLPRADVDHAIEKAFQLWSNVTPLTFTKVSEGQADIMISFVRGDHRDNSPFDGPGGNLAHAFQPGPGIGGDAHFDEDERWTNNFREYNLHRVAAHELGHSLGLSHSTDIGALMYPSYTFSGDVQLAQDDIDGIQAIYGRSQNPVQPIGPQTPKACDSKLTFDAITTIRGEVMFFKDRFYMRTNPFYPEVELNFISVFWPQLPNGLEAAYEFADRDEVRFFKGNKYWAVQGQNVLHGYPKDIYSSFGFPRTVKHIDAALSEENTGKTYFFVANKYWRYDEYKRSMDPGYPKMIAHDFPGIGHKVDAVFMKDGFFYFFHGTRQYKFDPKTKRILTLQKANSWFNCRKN
Briefly: Inhibition of human matrix metalloprotease-1.

Sequence of Matrix metalloproteinase-9 (P14780 whole entry): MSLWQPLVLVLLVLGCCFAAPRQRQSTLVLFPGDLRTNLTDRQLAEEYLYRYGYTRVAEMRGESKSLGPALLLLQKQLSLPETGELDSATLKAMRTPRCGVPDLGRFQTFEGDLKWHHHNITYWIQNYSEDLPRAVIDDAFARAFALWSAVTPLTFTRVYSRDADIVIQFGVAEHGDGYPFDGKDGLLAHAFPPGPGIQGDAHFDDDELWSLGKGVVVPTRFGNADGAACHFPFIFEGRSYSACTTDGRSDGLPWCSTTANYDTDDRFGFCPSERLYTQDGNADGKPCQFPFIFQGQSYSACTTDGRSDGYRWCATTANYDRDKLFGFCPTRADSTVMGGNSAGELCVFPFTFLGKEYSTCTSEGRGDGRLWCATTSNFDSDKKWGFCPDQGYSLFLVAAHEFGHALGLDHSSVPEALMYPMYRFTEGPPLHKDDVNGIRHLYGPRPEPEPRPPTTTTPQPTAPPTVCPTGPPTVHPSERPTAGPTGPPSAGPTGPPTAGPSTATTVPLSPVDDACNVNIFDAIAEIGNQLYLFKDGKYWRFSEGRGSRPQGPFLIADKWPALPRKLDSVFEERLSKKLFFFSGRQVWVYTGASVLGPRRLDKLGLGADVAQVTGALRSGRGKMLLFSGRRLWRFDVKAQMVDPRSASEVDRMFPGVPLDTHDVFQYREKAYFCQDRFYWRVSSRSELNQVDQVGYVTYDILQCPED
Sequence of 72 kDa type IV collagenase (P08253 whole entry): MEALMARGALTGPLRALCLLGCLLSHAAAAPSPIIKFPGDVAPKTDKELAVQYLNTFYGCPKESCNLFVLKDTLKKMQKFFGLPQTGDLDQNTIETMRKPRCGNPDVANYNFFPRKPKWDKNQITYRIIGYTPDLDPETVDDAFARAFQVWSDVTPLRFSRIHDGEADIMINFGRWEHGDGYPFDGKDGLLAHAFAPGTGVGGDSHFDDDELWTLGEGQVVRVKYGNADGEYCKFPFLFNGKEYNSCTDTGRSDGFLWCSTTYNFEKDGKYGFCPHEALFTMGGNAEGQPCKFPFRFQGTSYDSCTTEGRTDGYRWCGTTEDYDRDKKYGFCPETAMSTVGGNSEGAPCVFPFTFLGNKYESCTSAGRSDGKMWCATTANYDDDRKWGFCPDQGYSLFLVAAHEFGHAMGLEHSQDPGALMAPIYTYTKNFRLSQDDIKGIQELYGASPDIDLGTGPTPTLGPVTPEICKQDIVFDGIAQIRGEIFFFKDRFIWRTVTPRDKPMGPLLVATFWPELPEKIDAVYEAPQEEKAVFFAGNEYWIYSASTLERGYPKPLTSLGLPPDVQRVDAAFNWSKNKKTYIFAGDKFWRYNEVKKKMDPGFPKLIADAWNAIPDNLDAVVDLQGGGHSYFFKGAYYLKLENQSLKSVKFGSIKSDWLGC
Sequence of Stromelysin-1 (P08254 whole entry): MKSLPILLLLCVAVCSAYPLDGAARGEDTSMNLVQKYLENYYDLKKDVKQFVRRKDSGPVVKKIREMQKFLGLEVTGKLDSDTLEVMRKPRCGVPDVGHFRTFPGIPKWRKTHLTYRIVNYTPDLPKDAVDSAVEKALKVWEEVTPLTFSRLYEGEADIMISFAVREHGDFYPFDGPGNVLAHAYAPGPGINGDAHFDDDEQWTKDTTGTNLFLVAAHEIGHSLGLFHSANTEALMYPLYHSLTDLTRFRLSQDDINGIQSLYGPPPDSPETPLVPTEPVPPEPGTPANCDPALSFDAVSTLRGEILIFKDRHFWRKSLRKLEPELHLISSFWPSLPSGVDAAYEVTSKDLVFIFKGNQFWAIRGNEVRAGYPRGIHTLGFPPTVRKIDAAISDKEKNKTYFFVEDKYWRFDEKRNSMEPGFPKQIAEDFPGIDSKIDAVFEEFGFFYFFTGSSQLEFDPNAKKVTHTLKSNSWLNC
Sequence of Neutrophil collagenase (P22894 whole entry): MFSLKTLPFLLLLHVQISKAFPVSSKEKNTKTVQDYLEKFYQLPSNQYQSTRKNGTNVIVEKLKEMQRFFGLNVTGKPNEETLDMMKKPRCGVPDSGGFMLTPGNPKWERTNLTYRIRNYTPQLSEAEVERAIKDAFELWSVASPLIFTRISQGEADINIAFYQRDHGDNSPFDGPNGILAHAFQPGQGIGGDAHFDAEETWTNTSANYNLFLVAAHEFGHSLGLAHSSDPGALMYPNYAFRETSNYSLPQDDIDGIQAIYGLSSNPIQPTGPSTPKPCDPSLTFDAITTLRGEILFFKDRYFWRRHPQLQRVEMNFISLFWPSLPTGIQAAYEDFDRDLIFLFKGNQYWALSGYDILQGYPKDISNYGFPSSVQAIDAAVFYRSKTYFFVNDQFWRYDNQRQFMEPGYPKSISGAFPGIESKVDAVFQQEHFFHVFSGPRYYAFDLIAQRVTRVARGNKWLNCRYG

Take `CC(C)ON([C@@H](C(=O)NO)C(C)C)S(=O)(=O)c1ccc(-c2ccccc2)cc1`: the IC50 in experiment [1] is 6.7 nM; in experiment [2] it was 0.09 nM; on Stromelysin-1 it was 50 nM; at Matrilysin, above 11100 nM; in experiment [3] it was 9.8 nM; on Neutrophil collagenase it was 1.6 nM.
As for `CC(C)ON(CC(=O)NO)S(=O)(=O)c1ccc(-c2ccccc2)cc1`, the IC50 was 200 nM in experiment [1]; 12 nM in experiment [2]; 4500 nM against Stromelysin-1; above 50 µM on Interstitial collagenase; above 50000 nM at Matrilysin; above 10000 nM in experiment [3].
As to `CC(C)ON([C@H](CCNC(=O)OCc1ccccc1)C(=O)NO)S(=O)(=O)c1ccc(-c2ccccc2)cc1`, the IC50 is 16 nM in experiment [1]; 0.41 nM in experiment [2]; 130 nM on Stromelysin-1; above 3 µM on Interstitial collagenase; above 24400 nM against Matrilysin; 7.7 nM in experiment [3].
Turning to `CC(C)ON([C@H](C(=O)NO)C(C)C)S(=O)(=O)c1ccc(-c2ccccc2)cc1`, the IC50 worked out at 13 nM in experiment [1] and 10.3 nM in experiment [2].
Consider `CC(C)ON([C@H](CCN)C(=O)NO)S(=O)(=O)c1ccc(-c2ccccc2)cc1`, for which the IC50 is 4520 nM in experiment [1], 935 nM in experiment [2] and above 300 nM in experiment [3].
With `CC(C)ON(C(C(=O)NO)C(C)C)S(=O)(=O)c1ccc(-c2ccccc2)cc1` (racemic), the IC50 in experiment [1] came to 19.6 nM; in experiment [2] it was 1.8 nM.
Take `COc1ccc(S(=O)(=O)N(Cc2cccnc2)[C@@H](C(=O)NO)C(C)C)cc1` [CGS-27023A]: the IC50 is 100 nM against Matrilysin and 8.9 nM in experiment [3].
Take `CC1(C)SCCN(S(=O)(=O)c2ccc(Oc3ccncc3)cc2)[C@H]1C(=O)NO` [PRINOMASTAT]: the IC50 was 54 nM against Matrilysin and 0.3 nM in experiment [3].
